Results taken from ChEMBL document CHEMBL4507269, “Data for DCP probe BAY-386” (2021).

Experiments:
[1] = molecular target: STE20-like serine/threonine-protein kinase (Homo sapiens) (UniProt Q9H2G2); conditions: Compound concentration 1000.0 nM
[2] = molecular target: Dual specificity protein kinase CLK2 (Homo sapiens) (UniProt P49760); conditions: Compound concentration 1000.0 nM
[3] = molecular target: LIM domain kinase 2 (Homo sapiens) (UniProt P53671); conditions: Compound concentration 1000.0 nM
[4] = molecular target: 5-hydroxytryptamine receptor 2C (Homo sapiens) (UniProt P28335); conditions: Compound concentration 10.0 uM
[5] = molecular target: Tyrosine-protein kinase JAK3 (Homo sapiens) (UniProt P52333); conditions: Compound concentration 1000.0 nM
[6] = molecular target: Homeodomain-interacting protein kinase 1 (Homo sapiens) (UniProt Q86Z02); conditions: Compound concentration 1000.0 nM
[7] = molecular target: MAP kinase-interacting serine/threonine-protein kinase 1 (Homo sapiens) (UniProt Q9BUB5); conditions: Compound concentration 1000.0 nM
[8] = molecular target: RAC-beta serine/threonine-protein kinase (Homo sapiens) (UniProt P31751); conditions: Compound concentration 1000.0 nM
[9] = molecular target: Serine/threonine-protein kinase STK11 (Homo sapiens) (UniProt Q15831); conditions: Compound concentration 1000.0 nM
[10] = molecular target: Bone morphogenetic protein receptor type-2 (Homo sapiens) (UniProt Q13873); conditions: Compound concentration 1000.0 nM
[11] = molecular target: Serine/threonine-protein kinase RIO2 (Homo sapiens) (UniProt Q9BVS4); conditions: Compound concentration 1000.0 nM
[12] = molecular target: Ribosomal protein S6 kinase alpha-4 (Homo sapiens) (UniProt O75676); conditions: Compound concentration 1000.0 nM
[13] = molecular target: Cyclin-dependent kinase 8 (Homo sapiens) (UniProt P49336); conditions: Compound concentration 1000.0 nM
[14] = molecular target: Dual specificity mitogen-activated protein kinase kinase 5 (Homo sapiens) (UniProt Q13163); conditions: Compound concentration 1000.0 nM
[15] = molecular target: 5'-AMP-activated protein kinase catalytic subunit alpha-2 (Homo sapiens) (UniProt P54646); conditions: Compound concentration 1000.0 nM
[16] = molecular target: Testis-specific serine/threonine-protein kinase 3 (Homo sapiens) (UniProt Q96PN8); conditions: Compound concentration 1000.0 nM
[17] = molecular target: Dual specificity mitogen-activated protein kinase kinase 7 (Homo sapiens) (UniProt O14733); conditions: Compound concentration 1000.0 nM
[18] = molecular target: Activin receptor type-1B (Homo sapiens) (UniProt P36896); conditions: Compound concentration 1000.0 nM
[19] = molecular target: G protein-coupled receptor kinase 4 (Homo sapiens) (UniProt P32298); conditions: Compound concentration 1000.0 nM
[20] = molecular target: Macrophage-stimulating protein receptor (Homo sapiens) (UniProt Q04912); conditions: Compound concentration 1000.0 nM
[21] = molecular target: Cyclin-dependent kinase 7 (Homo sapiens) (UniProt P50613); conditions: Compound concentration 1000.0 nM
[22] = molecular target: Mitogen-activated protein kinase 1 (Homo sapiens) (UniProt P28482); conditions: Compound concentration 1000.0 nM
[23] = molecular target: Protein kinase C eta type (Homo sapiens) (UniProt P24723); conditions: Compound concentration 1000.0 nM
[24] = molecular target: Sodium-dependent serotonin transporter (Homo sapiens) (UniProt P31645); conditions: Compound concentration 10.0 uM
[25] = molecular target: Fibroblast growth factor receptor 3 (Homo sapiens) (UniProt P22607); conditions: Compound concentration 1000.0 nM
[26] = test system: Epidermal growth factor receptor (Homo sapiens), P00533 [UNDEFINED MUTATION]; conditions: Compound concentration 1000.0 nM
[27] = test system: Phosphatidylinositol 4,5-bisphosphate 3-kinase catalytic subunit alpha isoform (Homo sapiens), P42336 [C420R]; conditions: Compound concentration 1000.0 nM
[28] = molecular target: Hepatocyte growth factor receptor (Homo sapiens) (UniProt P08581); conditions: Compound concentration 1000.0 nM
[29] = molecular target: Serine/threonine-protein kinase TNNI3K (Homo sapiens) (UniProt Q59H18); conditions: Compound concentration 1000.0 nM
[30] = test system: Serine/threonine-protein kinase B-raf (Homo sapiens), P15056 [V600E]; conditions: Compound concentration 1000.0 nM
[31] = molecular target: Serine/threonine-protein kinase pim-3 (Homo sapiens) (UniProt Q86V86); conditions: Compound concentration 1000.0 nM
[32] = molecular target: Histamine H1 receptor (Homo sapiens) (UniProt P35367); conditions: Compound concentration 10.0 uM
[33] = molecular target: Myosin light chain kinase 2, skeletal/cardiac muscle (Homo sapiens) (UniProt Q9H1R3); conditions: Compound concentration 1000.0 nM
[34] = molecular target: Mitogen-activated protein kinase 6 (Homo sapiens) (UniProt Q16659); conditions: Compound concentration 1000.0 nM
[35] = molecular target: Serine/threonine-protein kinase PLK2 (Homo sapiens) (UniProt Q9NYY3); conditions: Compound concentration 1000.0 nM
[36] = molecular target: Mitogen-activated protein kinase kinase kinase 11 (Homo sapiens) (UniProt Q16584); conditions: Compound concentration 1000.0 nM
[37] = molecular target: Calcium/calmodulin-dependent protein kinase type 1G (Homo sapiens) (UniProt Q96NX5); conditions: Compound concentration 1000.0 nM
[38] = molecular target: Serine/threonine-protein kinase Nek11 (Homo sapiens) (UniProt Q8NG66); conditions: Compound concentration 1000.0 nM
[39] = test system: Mast/stem cell growth factor receptor Kit (Homo sapiens), P10721 [L576P]; conditions: Compound concentration 1000.0 nM
[40] = molecular target: Protein-tyrosine kinase 2-beta (Homo sapiens) (UniProt Q14289); conditions: Compound concentration 1000.0 nM
[41] = molecular target: Alpha-2C adrenergic receptor (Homo sapiens) (UniProt P18825); conditions: Compound concentration 10.0 uM
[42] = molecular target: Tyrosine-protein kinase ABL1 (Homo sapiens) (UniProt P00519); conditions: Compound concentration 1000.0 nM
[43] = molecular target: Mitogen-activated protein kinase kinase kinase 20 (Homo sapiens) (UniProt Q9NYL2); conditions: Compound concentration 1000.0 nM
[44] = molecular target: Serine/threonine-protein kinase PAK 2 (Homo sapiens) (UniProt Q13177); conditions: Compound concentration 1000.0 nM
[45] = molecular target: Serine/threonine-protein kinase/endoribonuclease IRE1 (Homo sapiens) (UniProt O75460); conditions: Compound concentration 1000.0 nM
Sequence of Serine/threonine-protein kinase/endoribonuclease IRE1 (Homo sapiens) (O75460 19-977 limits assumed): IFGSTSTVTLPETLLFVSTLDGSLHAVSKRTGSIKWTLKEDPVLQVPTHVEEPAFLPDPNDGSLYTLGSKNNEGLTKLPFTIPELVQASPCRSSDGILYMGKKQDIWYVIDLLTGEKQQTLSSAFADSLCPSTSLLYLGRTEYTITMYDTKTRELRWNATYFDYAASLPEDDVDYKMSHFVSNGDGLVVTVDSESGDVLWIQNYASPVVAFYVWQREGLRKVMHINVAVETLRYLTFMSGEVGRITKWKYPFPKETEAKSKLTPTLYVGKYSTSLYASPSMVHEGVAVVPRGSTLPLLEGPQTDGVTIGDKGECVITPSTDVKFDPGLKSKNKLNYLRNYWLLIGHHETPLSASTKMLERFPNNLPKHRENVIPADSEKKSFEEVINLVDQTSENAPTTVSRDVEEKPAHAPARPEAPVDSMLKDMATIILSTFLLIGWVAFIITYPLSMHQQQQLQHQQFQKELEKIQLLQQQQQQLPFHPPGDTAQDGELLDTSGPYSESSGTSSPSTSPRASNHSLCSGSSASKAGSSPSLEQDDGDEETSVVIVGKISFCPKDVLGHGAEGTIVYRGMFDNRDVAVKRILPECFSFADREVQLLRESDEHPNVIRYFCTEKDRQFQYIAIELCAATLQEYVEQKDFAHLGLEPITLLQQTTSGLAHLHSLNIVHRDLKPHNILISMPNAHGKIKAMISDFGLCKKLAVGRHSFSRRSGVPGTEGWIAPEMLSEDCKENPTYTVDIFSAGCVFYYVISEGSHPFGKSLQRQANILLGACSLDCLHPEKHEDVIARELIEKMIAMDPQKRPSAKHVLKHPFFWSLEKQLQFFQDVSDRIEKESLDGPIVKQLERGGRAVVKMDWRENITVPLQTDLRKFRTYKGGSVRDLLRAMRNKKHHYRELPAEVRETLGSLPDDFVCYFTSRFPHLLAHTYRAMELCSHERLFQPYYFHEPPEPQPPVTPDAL

Sequence of Phosphatidylinositol 4,5-bisphosphate 3-kinase catalytic subunit alpha isoform (Homo sapiens), P42336 [C420R] (P42336 whole entry C420R, canonical isoform): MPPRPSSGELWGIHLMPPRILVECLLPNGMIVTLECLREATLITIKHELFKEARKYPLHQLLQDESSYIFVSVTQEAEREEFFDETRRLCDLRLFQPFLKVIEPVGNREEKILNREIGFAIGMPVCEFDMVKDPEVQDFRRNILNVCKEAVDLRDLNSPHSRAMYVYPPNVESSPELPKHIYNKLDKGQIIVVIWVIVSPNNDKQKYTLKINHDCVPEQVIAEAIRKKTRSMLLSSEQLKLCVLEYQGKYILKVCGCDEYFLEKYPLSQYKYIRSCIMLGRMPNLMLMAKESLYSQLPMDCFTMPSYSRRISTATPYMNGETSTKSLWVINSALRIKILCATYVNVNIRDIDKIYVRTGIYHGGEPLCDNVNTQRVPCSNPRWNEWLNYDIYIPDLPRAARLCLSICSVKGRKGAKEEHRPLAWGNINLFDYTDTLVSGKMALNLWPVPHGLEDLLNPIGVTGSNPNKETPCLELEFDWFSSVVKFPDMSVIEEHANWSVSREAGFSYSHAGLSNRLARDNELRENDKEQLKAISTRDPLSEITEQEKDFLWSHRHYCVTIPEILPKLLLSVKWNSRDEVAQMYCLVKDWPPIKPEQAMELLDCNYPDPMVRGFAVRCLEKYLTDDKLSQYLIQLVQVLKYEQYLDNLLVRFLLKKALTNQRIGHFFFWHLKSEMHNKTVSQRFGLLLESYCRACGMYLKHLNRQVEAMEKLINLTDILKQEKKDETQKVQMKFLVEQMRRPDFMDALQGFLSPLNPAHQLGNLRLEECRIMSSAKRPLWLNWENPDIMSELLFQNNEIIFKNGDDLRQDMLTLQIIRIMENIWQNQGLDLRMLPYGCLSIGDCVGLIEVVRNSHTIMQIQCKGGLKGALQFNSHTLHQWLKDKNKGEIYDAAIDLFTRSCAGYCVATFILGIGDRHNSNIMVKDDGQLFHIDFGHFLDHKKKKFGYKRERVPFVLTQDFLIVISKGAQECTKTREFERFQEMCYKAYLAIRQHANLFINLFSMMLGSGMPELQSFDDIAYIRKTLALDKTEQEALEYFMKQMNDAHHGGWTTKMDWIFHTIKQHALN
Sequence of Mitogen-activated protein kinase kinase kinase 20 (Homo sapiens) (Q9NYL2 2-800 limits assumed): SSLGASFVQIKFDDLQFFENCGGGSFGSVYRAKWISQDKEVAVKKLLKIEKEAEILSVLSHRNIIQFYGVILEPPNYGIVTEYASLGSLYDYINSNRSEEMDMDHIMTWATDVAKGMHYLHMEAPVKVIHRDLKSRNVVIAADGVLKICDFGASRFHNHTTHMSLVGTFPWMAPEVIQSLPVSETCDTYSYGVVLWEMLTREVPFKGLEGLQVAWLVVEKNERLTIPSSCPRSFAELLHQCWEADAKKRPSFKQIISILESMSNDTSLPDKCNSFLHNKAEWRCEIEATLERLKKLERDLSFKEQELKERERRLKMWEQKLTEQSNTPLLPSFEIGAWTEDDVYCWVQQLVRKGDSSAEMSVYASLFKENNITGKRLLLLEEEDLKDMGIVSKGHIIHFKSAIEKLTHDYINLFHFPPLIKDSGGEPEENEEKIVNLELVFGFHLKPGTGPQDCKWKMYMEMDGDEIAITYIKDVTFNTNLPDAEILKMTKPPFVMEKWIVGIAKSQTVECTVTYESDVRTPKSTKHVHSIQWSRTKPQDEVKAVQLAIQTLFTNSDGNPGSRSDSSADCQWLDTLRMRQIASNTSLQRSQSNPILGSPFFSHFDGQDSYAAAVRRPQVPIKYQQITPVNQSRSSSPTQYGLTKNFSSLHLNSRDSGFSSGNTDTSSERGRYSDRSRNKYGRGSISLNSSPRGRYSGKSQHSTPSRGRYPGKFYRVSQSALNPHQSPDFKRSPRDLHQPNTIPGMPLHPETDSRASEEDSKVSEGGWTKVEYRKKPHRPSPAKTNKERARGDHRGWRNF
Sequence of Macrophage-stimulating protein receptor (Homo sapiens) (Q04912 25-304 limits assumed): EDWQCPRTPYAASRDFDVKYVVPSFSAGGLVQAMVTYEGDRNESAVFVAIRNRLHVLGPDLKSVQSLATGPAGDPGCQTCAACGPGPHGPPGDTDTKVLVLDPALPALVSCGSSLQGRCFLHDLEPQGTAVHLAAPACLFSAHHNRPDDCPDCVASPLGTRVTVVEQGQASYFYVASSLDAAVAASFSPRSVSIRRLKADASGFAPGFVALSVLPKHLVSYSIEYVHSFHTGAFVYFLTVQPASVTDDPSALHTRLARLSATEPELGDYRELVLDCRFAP
Sequence of Macrophage-stimulating protein receptor (Homo sapiens) (Q04912 310-1400 limits assumed): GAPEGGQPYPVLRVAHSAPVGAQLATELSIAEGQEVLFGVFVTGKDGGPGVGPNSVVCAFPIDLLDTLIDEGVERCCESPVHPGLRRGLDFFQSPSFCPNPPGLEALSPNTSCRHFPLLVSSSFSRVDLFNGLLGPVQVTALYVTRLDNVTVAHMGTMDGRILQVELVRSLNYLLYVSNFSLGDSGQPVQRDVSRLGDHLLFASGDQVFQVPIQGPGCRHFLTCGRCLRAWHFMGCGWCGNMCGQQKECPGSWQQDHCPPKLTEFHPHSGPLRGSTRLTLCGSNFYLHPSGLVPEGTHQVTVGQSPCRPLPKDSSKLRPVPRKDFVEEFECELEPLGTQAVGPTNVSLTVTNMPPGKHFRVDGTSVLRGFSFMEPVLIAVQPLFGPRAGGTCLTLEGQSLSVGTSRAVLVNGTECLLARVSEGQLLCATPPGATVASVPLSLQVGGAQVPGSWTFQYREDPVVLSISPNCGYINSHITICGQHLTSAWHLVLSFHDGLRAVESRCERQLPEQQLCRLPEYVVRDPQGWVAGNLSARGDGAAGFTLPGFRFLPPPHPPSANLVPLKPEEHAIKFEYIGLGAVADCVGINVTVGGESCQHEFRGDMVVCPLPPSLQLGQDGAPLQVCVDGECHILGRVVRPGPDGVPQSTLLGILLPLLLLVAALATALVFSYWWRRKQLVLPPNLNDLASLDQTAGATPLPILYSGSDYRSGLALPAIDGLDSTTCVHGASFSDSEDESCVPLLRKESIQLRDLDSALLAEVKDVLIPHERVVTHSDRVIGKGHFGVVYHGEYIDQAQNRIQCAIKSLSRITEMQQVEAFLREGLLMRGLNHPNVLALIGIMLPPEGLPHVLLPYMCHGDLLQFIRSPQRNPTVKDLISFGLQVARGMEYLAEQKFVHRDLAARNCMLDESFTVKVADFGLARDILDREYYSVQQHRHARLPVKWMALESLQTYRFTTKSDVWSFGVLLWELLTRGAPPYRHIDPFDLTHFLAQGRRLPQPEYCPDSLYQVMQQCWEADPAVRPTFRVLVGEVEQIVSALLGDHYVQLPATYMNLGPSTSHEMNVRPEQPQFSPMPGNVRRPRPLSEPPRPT
Sequence of Serine/threonine-protein kinase B-raf (Homo sapiens), P15056 [V600E] (P15056 whole entry V600E): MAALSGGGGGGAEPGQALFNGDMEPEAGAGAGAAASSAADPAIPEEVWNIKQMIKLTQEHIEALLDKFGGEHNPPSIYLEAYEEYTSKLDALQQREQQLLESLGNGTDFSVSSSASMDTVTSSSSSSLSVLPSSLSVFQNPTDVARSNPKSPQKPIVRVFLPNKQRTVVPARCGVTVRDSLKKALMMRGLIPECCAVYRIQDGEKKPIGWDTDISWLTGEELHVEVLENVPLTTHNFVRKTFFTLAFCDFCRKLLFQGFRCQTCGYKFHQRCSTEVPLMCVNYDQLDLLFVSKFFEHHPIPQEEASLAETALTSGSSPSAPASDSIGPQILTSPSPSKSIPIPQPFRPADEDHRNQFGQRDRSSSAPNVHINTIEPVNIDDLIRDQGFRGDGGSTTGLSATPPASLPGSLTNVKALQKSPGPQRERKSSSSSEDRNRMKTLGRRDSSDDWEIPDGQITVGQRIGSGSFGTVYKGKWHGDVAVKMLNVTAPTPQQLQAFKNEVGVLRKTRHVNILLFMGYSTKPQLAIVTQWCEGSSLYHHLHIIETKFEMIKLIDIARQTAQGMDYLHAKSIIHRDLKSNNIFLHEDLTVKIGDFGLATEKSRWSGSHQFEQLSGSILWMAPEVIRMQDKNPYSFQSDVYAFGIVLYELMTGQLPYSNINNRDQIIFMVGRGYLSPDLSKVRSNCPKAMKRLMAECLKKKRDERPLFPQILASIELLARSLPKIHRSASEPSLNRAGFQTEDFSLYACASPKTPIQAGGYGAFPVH

O=C(N1CCS(=O)(=O)CC1)N1C[C@H](c2ccc(OC(F)(F)F)cc2)C[C@H](c2nc(C3CC3)no2)C1 [BAY-386]
inactive: residual activity [1] 100% | residual activity [2] 100% | residual activity [3] 95% | inhibition [4] -4.94% | residual activity [5] 100% | residual activity [6] 100% | residual activity [7] 100% | residual activity [8] 90% | residual activity [9] 92% | residual activity [10] 100% | residual activity [11] 100% | residual activity [12] 100% | residual activity [13] 100% | residual activity [14] 100% | residual activity [15] 100% | residual activity [16] 100% | residual activity [17] 100% | residual activity [18] 100% | residual activity [19] 100% | residual activity [20] 100% | residual activity [21] 100% | residual activity [22] 95% | residual activity [23] 100% | inhibition [24] 8.68% | residual activity [25] 100% | residual activity [26] 100% | residual activity [27] 100% | residual activity [28] 100% | residual activity [29] 100% | residual activity [30] 100% | residual activity [31] 100% | inhibition [32] -5.32% | residual activity [33] 100% | residual activity [34] 100% | residual activity [35] 100% | residual activity [36] 100% | residual activity [37] 100% | residual activity [38] 100% | residual activity [39] 100% | residual activity [40] 99% | inhibition [41] 11.6% | residual activity [42] 92% | residual activity [43] 100% | residual activity [44] 90% | residual activity [45] 96%

Cc1noc([C@H]2C[C@@H](c3ccc(C(F)(F)F)cc3)CN(C(=O)N3CCS(=O)(=O)C3)C2)n1 [BAY-448]
inactive: residual activity [1] 98% | residual activity [2] 100% | residual activity [3] 100% | inhibition [4] 37.1% | residual activity [5] 100% | residual activity [6] 82% | residual activity [7] 99% | residual activity [8] 96% | residual activity [9] 100% | residual activity [10] 100% | residual activity [11] 100% | residual activity [12] 100% | residual activity [13] 100% | residual activity [14] 78% | residual activity [15] 66% | residual activity [16] 100% | residual activity [17] 100% | residual activity [18] 100% | residual activity [19] 99% | residual activity [20] 100% | residual activity [21] 89% | residual activity [22] 100% | residual activity [23] 95% | inhibition [24] 5.57% | residual activity [25] 100% | residual activity [26] 100% | residual activity [27] 84% | residual activity [28] 100% | residual activity [29] 100% | residual activity [30] 89% | residual activity [31] 91% | inhibition [32] 11.5% | residual activity [33] 100% | residual activity [34] 100% | residual activity [35] 100% | residual activity [36] 86% | residual activity [37] 100% | residual activity [38] 100% | residual activity [39] 100% | residual activity [40] 100% | inhibition [41] 10.5% | residual activity [42] 100% | residual activity [43] 87% | residual activity [44] 87% | residual activity [45] 100%
